pIC50: −log10 of the molar value.
Columns and labels:
[1] = system: constitutive active colorectal cancer cell (CRC) Wnt pathway; assay: HCT116 TOPFlash cellular reporter assay (Super TopFlash vector, luciferase); assay type: cell-based; details: Homo sapiens, HCT-116; HCT116 Super TopFlash reporter cells, 36 hours incubation, dilution series 50 μM to 15 nM, luciferase expression
Method: In order to discover and characterize small molecules which inhibit the constitutive active colorectal cancer cell (CRC) Wnt pathway, a cellular reporter assay was employed. The corresponding assay cell was generated by transfection of the colorectal cancer cell line HCT116 (ATCC, #CCL-247) with the Super TopFlash vector (Morin, Science 275, 1997, 1787-1790; Molenaar et al., Cell 86 (3), 1996, 391-399). The HCT116 cell line is cultivated at 37° C. and 5% CO2 in DMEM/F-12 (Life Technologies, #11320-074), supplemented with 2 mM glutamine, 20 mM HEPES, 1.4 mM pyruvate, 0.15% Na-bicarbonate and 10% foetal bovine serum (GIBCO, #10270), this cancer cell line is pathophysiological relevant since it carries a deletion of position S45 in the β-catenin gene, leading to constitutive active Wnt signaling. Stable transfectants were generated by cotransfection with pcDNA3 and selection of stable transfected cells with 1 mg/ml G418.
(§1) In preparation of the assay, the two cell lines were plated 24 hours before at 10000 cells per well of a 384 micro titre plate (MTP) in 30 μL growth medium. Selective inhibitory activity for small molecules on the mutated Wnt pathway was determined after parallel incubation of both (TOP and FOP) HCT116 reporter cell lines with a compound dilution series from 50 μM to 15 nM in steps of 3.16-fold dilutions in CAFTY buffer (130 mM NaCl, 5 mM KCl, 20 mM HEPES, 1 mM MgCl2, 5 mM NaHCO3, pH 7.4) containing 2 mM Ca^2+ and 0.01% BSA. The compounds were thereby serially prediluted in 100% DMSO and thereafter in addition 50 fold into the CAFTY compound dilution buffer (described above). From this dilution 10 μL were added to the cells in 30 μL growth medium and incubated for 36 hours at 37° C. and 5% CO2.

[2] = system: HCT116 cells cotransfected with the FOP control vector (non-functional TCF elements); assay: HCT116 FOPFlash control reporter assay (FOP control vector, luciferase); assay type: cell-based; details: Homo sapiens, HCT-116, 36 hours incubation, dilution series 50 μM to 15 nM, luciferase expression
Method: In a parallel approach, HCT116 cells were cotransfected with the FOP control vector and pcDNA3. The FOP vector is identical to the TOP construct, but it contains instead of functional TCF elements a randomized, non-functional sequence. For this transfection a stable transfected cell line was generated as well.
as §1

Row | Structure (SMILES) | pIC50 [1] | pIC50 [2]
1 | COc1ccc(NC(=O)c2ccc(-c3ccccc3)cc2)cc1C(=O)NCc1cccnc1 [Example 37, N-{4-methoxy-3-[(pyridin-3-ylmethyl)carbamoyl]phenyl} biphenyl-4-carboxamide] | 5.74 | 4.60
2 | COc1cc(NC(=O)c2cc(C(=O)Nc3ccc(-c4ccccc4)cc3)ccc2OC)ccn1 [Example 38, N^1-(biphenyl-4-yl)-4-methoxy-N^3-(2-methoxypyridin-4-yl)isophthalamide] | 5.95 | 4.68
3 | O=C(Nc1ccc(-c2ccccc2F)nc1)c1ccc(OC(F)(F)F)c(C(=O)Nc2cccnc2)c1 [Example 57, N^1-[6-(2-fluorophenyl)pyridin-3-yl]-N^3-(pyridin-3-yl)-4-(trifluoromethoxy) isophthalamide] | 5.59 | 4.96
4 | Cc1cc(NC(=O)c2cc(C(=O)Nc3ccc(-c4ccccc4)cc3)ccc2OC(F)(F)F)ccn1 [Example 10, N^1-(biphenyl-4-yl)-N^3-(2-methylpyridin-4-yl)-4-(trifluoromethoxy)isophthalamide] | 6.22 | 5.00
5 | O=C(Nc1ccc(-c2ccccc2F)nc1)c1ccc(OC(F)(F)F)c(C(=O)Nc2ccncc2)c1 [Example 17, N^1-[6-(2-fluorophenyl)pyridin-3-yl]-N^3-(pyridin-4-yl)-4-(trifluoromethoxy)isophthalamide] | 6.17 | ≤ 4.30
6 | Nc1ccc(CNC(=O)c2cc(C(=O)Nc3ccc(-c4ccccc4F)nc3)ccc2OC(F)(F)F)cn1 [Example 51, N^3-[(6-aminopyridin-3-yl)methyl]-N^1-[6-(2-fluorophenyl)pyridin-3-yl]-4-(trifluoromethoxy) isophthalamide] | 5.74 | 4.85
7 | COc1ccc(C(=O)Nc2ccc(-c3ccccc3)cc2)cc1C(=O)Nc1ccncc1C [Example 13, N^1-(biphenyl-4-yl)-4-methoxy-N^3-(3-methylpyridin-4-yl)isophthalamide] | 6.39 | ≤ 4.30
